Source: patent US20060058299A1, “N-2s-4-3,4-difluorobenzyl morpholin-2yl methyl -2-(3-methylsulphonyl amino!phenyl acetamide as ccr3 antagonist for the treatment of inflammatory conditions” (priority 2002, published 2006)

Experiments:
CCR-3 = target: T1, CCR-3 (Homo sapiens, UniProt P51677); experiment: CCR-3 competition binding SPA ([125I]eotaxin); settings: membranes from K562 cells stably expressing CCR-3; 20 pM [125I]eotaxin; mean of at least two experiments; read-out: pIC50 (inhibition of [125I]eotaxin binding) (converted)
T1 construct: expressed in transfected cells; membranes)
T1 sequence (P51677 1-355): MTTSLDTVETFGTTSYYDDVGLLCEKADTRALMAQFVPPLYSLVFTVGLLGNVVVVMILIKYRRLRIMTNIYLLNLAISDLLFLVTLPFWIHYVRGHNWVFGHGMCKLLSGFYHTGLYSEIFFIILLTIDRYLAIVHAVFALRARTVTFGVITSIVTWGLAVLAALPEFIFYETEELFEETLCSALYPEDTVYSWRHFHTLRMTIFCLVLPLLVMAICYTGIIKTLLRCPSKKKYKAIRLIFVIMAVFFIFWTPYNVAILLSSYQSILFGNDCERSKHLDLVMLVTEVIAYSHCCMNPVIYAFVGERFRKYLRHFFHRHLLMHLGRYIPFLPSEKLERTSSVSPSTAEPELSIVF
Method: A CCR-3 competition binding SPA (scintillation proximity assay) was used to assess the affinity of novel compounds for CCR-3. Membranes prepared from K562 cells stably expressing CCR-3 (2.5 μg/well) were mixed with 0.25 mg/well wheat-germ agglutinin SPA beads (Amersham) and incubated in binding buffer (HEPES 50 mM, CaCl2 1 mM, MgCl2 5 mM, 0.5% BSA) at 4° C. for 1.5 hr. Following incubation, 20 pM of [^125I] eotaxin (Amersham) and increasing concentrations of compound (1 pM to 30 μM) were added and incubated in a 96 well plate for 2 hr at 22° C. then counted on a Microbeta plate counter. The total assay volume was 100 μl. Competition binding data were analysed by fitting the data with a four parameter logistic equation. Data are presented as the mean pIC50 values (negative logarithm of the concentration of compound which inhibits [^125I]eotaxin binding by 50%) from at least two experiments.

[1] = target: eosinophils purified from human peripheral blood; experiment: Eosinophil chemotaxis assay (eotaxin-induced); assay type: cell-based; settings: agonist eotaxin at EC80 concentration
Method: (b) Eosinophil Chemotaxis Assay.
The compound was evaluated for its inhibitory effect on eosinophil chemotaxis. Eosinophils were purified from human peripheral blood by standard CD16 cell depletion using a Miltenyi cell separation column and a magnetic Super Macs magnet as previously described (Motegi & Kita, 1998; J. Immunology. 161:4340-6). Cells were re-suspended in RPMI 1640/10% FCS solution and incubated with calcein-AM (Molecular Probes) at 37° C. for 30 mins. Following incubation, the eosinophils were centrifuged at 400 g for 5 min and re-suspended in RPMI/FCS at 2.2 million/ml. Cells were then incubated in the presence of increasing concentration of compounds (1 pM to 30 μM) at 37° C. for 30 mins. For control responses cells were incubated with RPMI/FCS only. The agonist eotaxin (an EC80 concentration) was added to the lower chamber of a 96 well chemotaxis plate (5 μm filter. Receptor Technologies). Eosinophils (50 μl of 2 million/ml cells) were added to the top chamber of the filter plate and incubated at 37° C. for 45 mins. Cells remaining on top of the chemotaxis filter were removed and the number of eosinophils which had migrated were quantified by reading the plate on a fluorescent plate reader. Inhibition curves for the effect of compounds on eosinophil chemotaxis were analysed by fitting the data with a four parameter logistic equation. […]

IC50 (CCR-3): 10 nM
fpKi (functional pKi, eosinophil chemotaxis) [1]: 8.4
SMILES: CS(=O)(=O)Nc1cccc(CC(=O)NC[C@H]2CN(Cc3ccc(F)c(F)c3)CCO2)c1 [Example 1, N-{[(2S)-4-(3.4-difluorobenzyl)morpholin-2-yl]methyl}-2-{3-[(methylsulfonyl)amino]phenyl}acetamide]
